This assay deals with MV-4-11 cells. Put plainly: Gene expression microarray analysis (Affymetrix PrimeView) and GSEA. The class given is cell-based, human. The arrangement: RFU PODN (11730768_x_at) / Fold change /veh PODN (11730768_x_at) / RFU LINC00158 (11744669_a_at) / Fold change /veh LINC00158 (11744669_a_at) / RFU DUSP10 (11751237_a_at) / Fold change /veh DUSP10 (11751237_a_at) / RFU ID3 (11757404_x_at) / Fold change /veh ID3 (11757404_x_at) / RFU PLEKHG5 (11737974_s_at) / Fold change /veh PLEKHG5 (11737974_s_at) / RFU LRRC4B (11730491_at) / Fold change /veh LRRC4B (11730491_at) / RFU GIMAP4 (11747438_a_at) / Fold change /veh GIMAP4 (11747438_a_at) / RFU KRT8 (11758183_x_at) / Fold change /veh KRT8 (11758183_x_at) / RFU CNN1 (11734310_a_at) / Fold change /veh CNN1 (11734310_a_at) / RFU VPS37D (11726825_at) / Fold change /veh VPS37D (11726825_at) / RFU C10orf10 (11716522_x_at) / Fold change /veh C10orf10 (11716522_x_at) / RFU KIR2DL2 /// KIR2DL4 /// KIR2DL5A /// KIR2DL5B /// KIR2DS1 /// KIR2DS2 /// KIR2DS3 /// KIR2DS4 /// KIR3DL3 /// KIR3DL3 /// KIR3DS1 (11738374_at) / Fold change /veh KIR2DL2 /// KIR2DL4 /// KIR2DL5A /// KIR2DL5B /// KIR2DS1 /// KIR2DS2 /// KIR2DS3 /// KIR2DS4 /// KIR3DL3 /// KIR3DL3 /// KIR3DS1 (11738374_at) / RFU C1QL1 (11718748_at) / Fold change /veh C1QL1 (11718748_at) / RFU TMPRSS4 (11747572_a_at) / Fold change /veh TMPRSS4 (11747572_a_at) / RFU HAMP (11756126_x_at) / Fold change /veh HAMP (11756126_x_at) / RFU RNFT2 (11725882_a_at) / Fold change /veh RNFT2 (11725882_a_at) / RFU NR4A2 (11747474_a_at) / Fold change /veh NR4A2 (11747474_a_at) / RFU ABCC12 (11746883_a_at) / Fold change /veh ABCC12 (11746883_a_at) / RFU TMEM136 (11760407_x_at) / Fold change /veh TMEM136 (11760407_x_at) / RFU CLDN22 /// WWC2 (11732394_at) / Fold change /veh CLDN22 /// WWC2 (11732394_at) / RFU HLA-DPB1 (11760878_x_at) / Fold change /veh HLA-DPB1 (11760878_x_at) / RFU SPINT1 (11716480_a_at) / Fold change /veh SPINT1 (11716480_a_at) / RFU GAP43 (11754022_s_at) / Fold change /veh GAP43 (11754022_s_at) / RFU A4GNT (11735810_at) / Fold change /veh A4GNT (11735810_at) / RFU PRB3 (11715151_x_at) / Fold change /veh PRB3 (11715151_x_at) / RFU TUBB4B (11761932_at) / Fold change /veh TUBB4B (11761932_at) / RFU CAPN14 (11732068_a_at) / Fold change /veh CAPN14 (11732068_a_at) / RFU TMCC2 (11721928_a_at) / Fold change /veh TMCC2 (11721928_a_at) / RFU IRGQ (11745062_a_at) / Fold change /veh IRGQ (11745062_a_at) / RFU FAM174B (11720279_a_at) / Fold change /veh FAM174B (11720279_a_at) / RFU TMPRSS4 (11748680_a_at) / Fold change /veh TMPRSS4 (11748680_a_at) / RFU FAM212B (11763350_a_at) / Fold change /veh FAM212B (11763350_a_at) / RFU PLEKHG5 (11743358_a_at) / Fold change /veh PLEKHG5 (11743358_a_at) / RFU ZSCAN30 (11745921_a_at) / Fold change /veh ZSCAN30 (11745921_a_at) / RFU CMKLR1 (11741424_a_at) / Fold change /veh CMKLR1 (11741424_a_at) / RFU LOC101060620 /// MAPK8IP1 (11723275_at) / Fold change /veh LOC101060620 /// MAPK8IP1 (11723275_at) / RFU SPTSSB (11747773_x_at) / Fold change /veh SPTSSB (11747773_x_at) / RFU PRSS12 (11739890_at) / Fold change /veh PRSS12 (11739890_at) / RFU BIN1 (11741810_x_at) / Fold change /veh BIN1 (11741810_x_at) / RFU WNT11 (11732464_a_at) / Fold change /veh WNT11 (11732464_a_at) / RFU C10orf10 (11716521_a_at) / Fold change /veh C10orf10 (11716521_a_at) / RFU C5orf56 (11738089_at) / Fold change /veh C5orf56 (11738089_at) / RFU CYB561 (11721691_x_at) / Fold change /veh CYB561 (11721691_x_at) / RFU ANKRD19P (11752326_a_at) / Fold change /veh ANKRD19P (11752326_a_at) / RFU OR2T12 /// OR2T33 /// OR2T8 (11738714_s_at) / Fold change /veh OR2T12 /// OR2T33 /// OR2T8 (11738714_s_at) / RFU VCAN (11748164_a_at) / Fold change /veh VCAN (11748164_a_at) / RFU JSRP1 (11732532_at) / Fold change /veh JSRP1 (11732532_at) / RFU KRTAP10-11 (11738290_x_at) / Fold change /veh KRTAP10-11 (11738290_x_at) / RFU MYO3A (11730013_a_at) / Fold change /veh MYO3A (11730013_a_at) / RFU EBF3 (11725865_a_at) / Fold change /veh EBF3 (11725865_a_at) / RFU CAMK2N1 (11719241_x_at) / Fold change /veh CAMK2N1 (11719241_x_at) / RFU C5orf56 (11738088_a_at) / Fold change /veh C5orf56 (11738088_a_at) / RFU OLFML3 (11715873_a_at) / Fold change /veh OLFML3 (11715873_a_at) / RFU LOC100653217 /// NTM (11731650_a_at) / Fold change /veh LOC100653217 /// NTM (11731650_a_at) / RFU MAPK11 (11762145_a_at) / Fold change /veh MAPK11 (11762145_a_at) / RFU FIZ1 (11724087_x_at) / Fold change /veh FIZ1 (11724087_x_at) / RFU OASL (11726364_x_at) / Fold change /veh OASL (11726364_x_at) / RFU SOX15 (11748057_x_at) / Fold change /veh SOX15 (11748057_x_at) / RFU CD79A (11719716_a_at) / Fold change /veh CD79A (11719716_a_at) / RFU HIST1H1D (11736915_at) / Fold change /veh HIST1H1D (11736915_at) / RFU CASKIN2 (11723855_a_at) / Fold change /veh CASKIN2 (11723855_a_at) / RFU LOC730098 (11760151_x_at) / Fold change /veh LOC730098 (11760151_x_at) / RFU OR4N2 (11742367_at) / Fold change /veh OR4N2 (11742367_at) / RFU PRRT2 (11749266_a_at) / Fold change /veh PRRT2 (11749266_a_at) / RFU SNX32 (11753110_a_at) / Fold change /veh SNX32 (11753110_a_at) / RFU CDHR5 (11726645_a_at) / Fold change /veh CDHR5 (11726645_a_at) / RFU RCAN1 (11760418_a_at) / Fold change /veh RCAN1 (11760418_a_at) / RFU FAM167A (11723789_a_at) / Fold change /veh FAM167A (11723789_a_at) / RFU FAM26E (11764081_at) / Fold change /veh FAM26E (11764081_at) / RFU ISYNA1 (11749810_s_at) / Fold change /veh ISYNA1 (11749810_s_at) / RFU ACY1 (11761880_at) / Fold change /veh ACY1 (11761880_at) / RFU 11764098_at / Fold change /veh 11764098_at / RFU SAMD14 (11745864_x_at) / Fold change /veh SAMD14 (11745864_x_at) / RFU NPB (11741838_a_at) / Fold change /veh NPB (11741838_a_at) / RFU TMPRSS6 (11731388_a_at) / Fold change /veh TMPRSS6 (11731388_a_at) / RFU KRTAP10-2 (11738614_at) / Fold change /veh KRTAP10-2 (11738614_at) / RFU ARHGAP8 /// PRR5-ARHGAP8 (11727945_x_at) / Fold change /veh ARHGAP8 /// PRR5-ARHGAP8 (11727945_x_at) / RFU KRTAP5-7 /// NADSYN1 (11734609_at) / Fold change /veh KRTAP5-7 /// NADSYN1 (11734609_at) / RFU RASL12 (11751679_a_at) / Fold change /veh RASL12 (11751679_a_at) / RFU CDKN2B (11736163_a_at) / Fold change /veh CDKN2B (11736163_a_at) / RFU PRF1 (11729649_at) / Fold change /veh PRF1 (11729649_at) / RFU, ZNF638 /// ZNF638-IT1 / Fold change vs veh, ZNF638 /// ZNF638-IT1 / RFU, PANK3 / Fold change vs veh, PANK3 / RFU, SH3YL1 / Fold change vs veh, SH3YL1 / RFU, ZEB2 / Fold change vs veh, ZEB2 / RFU, NRIP1 / Fold change vs veh, NRIP1 / RFU, PTTG1IP / Fold change vs veh, PTTG1IP / RFU, CAPN2 / Fold change vs veh, CAPN2 / RFU, MED14 / Fold change vs veh, MED14 / RFU, SNORA58 / Fold change vs veh, SNORA58 / RFU, C1orf63 / Fold change vs veh, C1orf63 / RFU, LRRFIP1 / Fold change vs veh, LRRFIP1 / RFU, NDUFAF7 / Fold change vs veh, NDUFAF7 / RFU, SLC12A2 / Fold change vs veh, SLC12A2 / RFU, IBTK / Fold change vs veh, IBTK / RFU, ESF1 / Fold change vs veh, ESF1 / Fold change vs veh, TMEM50B / RFU, TAOK1 / Fold change vs veh, TAOK1 / RFU, ACBD3 / Fold change vs veh, ACBD3 / RFU, TMA16 / Fold change vs veh, TMA16 / RFU, RWDD3 / Fold change vs veh, RWDD3 / RFU, BCAT1 / Fold change vs veh, BCAT1 / RFU, EDEM3 / Fold change vs veh, EDEM3 / RFU, TMEM33 / Fold change vs veh, TMEM33 / RFU, WDR75 / Fold change vs veh, WDR75 / RFU, AHCTF1 / Fold change vs veh, AHCTF1 / RFU, TFRC / Fold change vs veh, TFRC / RFU, ZDHHC17 / Fold change vs veh, ZDHHC17 / RFU, NOM1 / Fold change vs veh, NOM1 / RFU, ARL8B / Fold change vs veh, ARL8B / RFU, ZBTB11 / Fold change vs veh, ZBTB11 / RFU, TAMM41 / Fold change vs veh, TAMM41 / RFU, KIAA1704 /// LOC100996395 / Fold change vs veh, KIAA1704 /// LOC100996395 / RFU, ING1 / Fold change vs veh, ING1 / RFU, TRMT61B / Fold change vs veh, TRMT61B / RFU, FUBP3 / Fold change vs veh, FUBP3 / RFU, TP53 / Fold change vs veh, TP53 / RFU, TNKS2 / Fold change vs veh, TNKS2 / RFU, ZFP14 / Fold change vs veh, ZFP14 / RFU, ACTR2 / Fold change vs veh, ACTR2 / RFU, PPP3R1 / Fold change vs veh, PPP3R1 / RFU, PIK3R1 / Fold change vs veh, PIK3R1 / RFU, HNRNPA1 / Fold change vs veh, HNRNPA1 / RFU, RNF170 / Fold change vs veh, RNF170 / RFU, ZNF28 / Fold change vs veh, ZNF28 / RFU, RNGTT / Fold change vs veh, RNGTT / RFU, OGT / Fold change vs veh, OGT / RFU, BRD1 / Fold change vs veh, BRD1 / RFU, MARS / Fold change vs veh, MARS / RFU, ZNF655 / Fold change vs veh, ZNF655 / RFU, FAHD1 / Fold change vs veh, FAHD1 / RFU, BDP1 / Fold change vs veh, BDP1 / RFU, LRRCC1 / Fold change vs veh, LRRCC1 / RFU, ARID1A / Fold change vs veh, ARID1A / RFU, ZNF146 / Fold change vs veh, ZNF146 / RFU, ZNF330 / Fold change vs veh, ZNF330 / RFU, GPN3 / Fold change vs veh, GPN3 / RFU, C9orf123 / Fold change vs veh, C9orf123 / RFU, N4BP2L2 / Fold change vs veh, N4BP2L2 / RFU, ARFIP1 / Fold change vs veh, ARFIP1 / RFU, FAM179B / Fold change vs veh, FAM179B / RFU, BCL10 / Fold change vs veh, BCL10 / RFU, UHRF1BP1L / Fold change vs veh, UHRF1BP1L / RFU, BET1 / Fold change vs veh, BET1 / RFU, CNOT2 / Fold change vs veh, CNOT2 / RFU, ZNF268 / Fold change vs veh, ZNF268 / Fold change vs veh, ZNF507 / RFU, DGCR2 / Fold change vs veh, DGCR2 / RFU, WDSUB1 / Fold change vs veh, WDSUB1 / Fold change vs veh, HSP90B1 /// MIR3652 / RFU, ADSS / Fold change vs veh, ADSS / RFU, GK / Fold change vs veh, GK / RFU, ZNF148 / Fold change vs veh, ZNF148 / RFU, TAF9 / Fold change vs veh, TAF9 / RFU, SLC1A5 / Fold change vs veh, SLC1A5 / RFU, SLMO2 / Fold change vs veh, SLMO2 / RFU, ABCC4 / Fold change vs veh, ABCC4 / RFU, LOC101060439 /// RAP1B / Fold change vs veh, LOC101060439 /// RAP1B / RFU, RFX7 / Fold change vs veh, RFX7 / RFU, GTPBP10 / Fold change vs veh, GTPBP10 / RFU, CNEP1R1 / Fold change vs veh, CNEP1R1 / RFU, BIVM-ERCC5 /// ERCC5 / Fold change vs veh, BIVM-ERCC5 /// ERCC5 / RFU, ILF3 / Fold change vs veh, ILF3 / RFU 11762660_at / Fold change /veh 11762660_at / RFU VCAN (11757783_s_at) / Fold change /veh VCAN (11757783_s_at) / RFU DDX43 (11728927_at) / Fold change /veh DDX43 (11728927_at) / RFU KRT8 (11758188_x_at) / Fold change /veh KRT8 (11758188_x_at) / RFU NKD1 (11759106_at) / Fold change /veh NKD1 (11759106_at) / RFU SRD5A1 (11742802_a_at) / Fold change /veh SRD5A1 (11742802_a_at) / RFU TPSAB1 /// TPSB2 (11721975_s_at) / Fold change /veh TPSAB1 /// TPSB2 (11721975_s_at) / RFU GSTM3 (11746129_a_at) / Fold change /veh GSTM3 (11746129_a_at) / RFU IL23R (11737362_x_at) / Fold change /veh IL23R (11737362_x_at) / RFU TMEM51 (11727254_a_at) / Fold change /veh TMEM51 (11727254_a_at) / RFU PIWIL2 (11732686_x_at) / Fold change /veh PIWIL2 (11732686_x_at) / RFU ORM1 (11744905_x_at) / Fold change /veh ORM1 (11744905_x_at) / RFU CCDC152 (11743942_at) / Fold change /veh CCDC152 (11743942_at) / RFU ECM1 (11717891_a_at) / Fold change /veh ECM1 (11717891_a_at) / RFU IL23R (11748794_a_at) / Fold change /veh IL23R (11748794_a_at) / RFU TNFAIP8L3 (11732012_x_at) / Fold change /veh TNFAIP8L3 (11732012_x_at) / RFU MBOAT4 (11741988_at) / Fold change /veh MBOAT4 (11741988_at) / RFU 11764193_at / Fold change /veh 11764193_at / RFU TMEM53 (11763286_at) / Fold change /veh TMEM53 (11763286_at) / RFU MAGEB2 (11727129_at) / Fold change /veh MAGEB2 (11727129_at) / RFU TMEM200A (11744735_a_at) / Fold change /veh TMEM200A (11744735_a_at) / RFU CCDC152 (11751479_a_at) / Fold change /veh CCDC152 (11751479_a_at) / RFU FAM211A (11726209_a_at) / Fold change /veh FAM211A (11726209_a_at) / RFU RGS16 (11746705_a_at) / Fold change /veh RGS16 (11746705_a_at) / RFU VCAN (11755009_s_at) / Fold change /veh VCAN (11755009_s_at) / RFU RHOB (11743442_s_at) / Fold change /veh RHOB (11743442_s_at) / RFU RGS16 (11720943_a_at) / Fold change /veh RGS16 (11720943_a_at) / RFU RGS16 (11720944_at) / Fold change /veh RGS16 (11720944_at) / RFU, VPS4B / Fold change vs veh, VPS4B / RFU, CREB1 / Fold change vs veh, CREB1 / RFU, DNAJC13 / Fold change vs veh, DNAJC13 / RFU, GNAQ / Fold change vs veh, GNAQ / RFU, CDK5R1 / Fold change vs veh, CDK5R1 / RFU, ZRANB3 / Fold change vs veh, ZRANB3 / RFU, CUL4A / Fold change vs veh, CUL4A / RFU, CCNY / Fold change vs veh, CCNY / RFU, UFL1 / Fold change vs veh, UFL1 / RFU, COG3 / Fold change vs veh, COG3 / RFU, DIAPH2 / Fold change vs veh, DIAPH2 / RFU, SKA2 / Fold change vs veh, SKA2 / RFU, AFF3 / Fold change vs veh, AFF3 / RFU, LMF1 / Fold change vs veh, LMF1 / RFU, IPO11 / Fold change vs veh, IPO11 / RFU, DFFB / Fold change vs veh, DFFB / RFU, FOXP1 / Fold change vs veh, FOXP1 / RFU, CARD8 / Fold change vs veh, CARD8 / RFU, STRN3 / Fold change vs veh, STRN3 / RFU, ADK / Fold change vs veh, ADK / RFU, RASSF2 / Fold change vs veh, RASSF2 / RFU, WIPF1 / Fold change vs veh, WIPF1 / RFU, LARP1B / Fold change vs veh, LARP1B / RFU, RASA1 / Fold change vs veh, RASA1 / RFU, RB1 / Fold change vs veh, RB1 / RFU, PPFIA1 / Fold change vs veh, PPFIA1 / RFU, MAT2A / Fold change vs veh, MAT2A / RFU, CCT5 / Fold change vs veh, CCT5 / RFU, WDR92 / Fold change vs veh, WDR92 / RFU, CUX1 / Fold change vs veh, CUX1 / RFU, TTC7A / Fold change vs veh, TTC7A / RFU, TMEM135 / Fold change vs veh, TMEM135 / RFU, DEPTOR / Fold change vs veh, DEPTOR / RFU, CPM / Fold change vs veh, CPM / RFU, DNAJB6 / Fold change vs veh, DNAJB6 / RFU, CACNA2D3 / Fold change vs veh, CACNA2D3 / RFU, DTX4 / Fold change vs veh, DTX4 / RFU, TFCP2 / Fold change vs veh, TFCP2 / RFU, GMCL1 /// GMCL1P1 / Fold change vs veh, GMCL1 /// GMCL1P1 / RFU, AEBP2 / Fold change vs veh, AEBP2 / RFU, SNHG1 /// SNORD22 /// SNORD25 /// SNORD26 /// SNORD27 /// SNORD28 /// SNORD29 /// SNORD31 / Fold change vs veh, SNHG1 /// SNORD22 /// SNORD25 /// SNORD26 /// SNORD27 /// SNORD28 /// SNORD29 /// SNORD31 / Fold change (Aza/veh), C12orf56 (ProbeSet 11735607_a_at) / Fold change (ACY-1035/veh), C12orf56 (ProbeSet 11735607_a_at) / Fold change (Aza/veh), FGFR1OP (ProbeSet 11751329_s_at) / Fold change (ACY-1035/veh), FGFR1OP (ProbeSet 11751329_s_at) / Fold change (Aza/veh), VPS36 (ProbeSet 11739960_a_at) / Fold change (ACY-1035/veh), VPS36 (ProbeSet 11739960_a_at) / RFU SYPL1 (11715823_x_at) / Fold change /veh SYPL1 (11715823_x_at) / RFU IGFBP7 (11715501_s_at) / Fold change /veh IGFBP7 (11715501_s_at) / RFU REEP3 (11722064_at) / Fold change /veh REEP3 (11722064_at) / RFU IGLL1 (11728026_x_at) / Fold change /veh IGLL1 (11728026_x_at): dose or concentration left out as unconfirmed. The settings on record: ProbeSet 11749477_a_at; LIST B.

As to `Nc1ncn([C@@H]2O[C@H](CO)[C@@H](O)[C@H]2O)c(=O)n1` [azacitidine], the “RFU, EDEM3” value came to 49.32 RFU.

Values taken from PMC5218480 (PLoS ONE, 2017).
